Results reported in PubChem BioAssay AID1963861 (Molecular Pharmacology Branch, DTP, NCI, 2024).

Test system: 885724-159-R-J1-PDC KRAS PDC multicell spheroid viability
Assay: Anticancer human tumor 885724-159-R-J1-PDC patient-derived pancreatic adenocarcinoma cell line growth inhibition [KRAS2]
Details: for IC50: curve of first compound; for viability, T/C: stronger effect = lower value
In short: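 KRAS-mutant tumor cells were grown as spheroids with HUVEC endothelial cells and human MSCs as stroma. Targeted agents were tested alone and with KRAS pathway inhibitors. Doses started at or near clinical Cmax, or 10 microM, descending half-log.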

[1] = second compound 0.0316 µM, first compound 0.01 µM
[2] = second compound 0.0316 µM, first compound 0.0316 µM
[3] = second compound 0.0316 µM, first compound 0.1 µM
[4] = second compound 0.0316 µM, first compound 0.316 µM
[5] = second compound 0.0316 µM, first compound 1 µM
[6] = second compound 0.0316 µM, first compound 3.16 µM
[7] = second compound 0.1 µM, first compound 0.01 µM
[8] = second compound 0.1 µM, first compound 0.0316 µM
[9] = second compound 0.1 µM, first compound 0.1 µM
[10] = second compound 0.1 µM, first compound 0.316 µM
[11] = second compound 0.1 µM, first compound 1 µM
[12] = second compound 0.1 µM, first compound 3.16 µM
[13] = second compound 0.316 µM, first compound 0.01 µM
[14] = second compound 0.316 µM, first compound 0.0316 µM
[15] = second compound 0.316 µM, first compound 0.1 µM
[16] = second compound 0.316 µM, first compound 0.316 µM
[17] = second compound 0.316 µM, first compound 1 µM
[18] = second compound 0.316 µM, first compound 3.16 µM
[19] = second compound 1 µM, first compound 0.01 µM
[20] = second compound 1 µM, first compound 0.0316 µM
[21] = second compound 1 µM, first compound 0.1 µM
[22] = second compound 1 µM, first compound 0.316 µM
[23] = second compound 1 µM, first compound 1 µM
[24] = second compound 1 µM, first compound 3.16 µM
[25] = second compound 3.16 µM, first compound 0.01 µM
[26] = second compound 3.16 µM, first compound 0.0316 µM
[27] = second compound 3.16 µM, first compound 0.1 µM
[28] = second compound 3.16 µM, first compound 0.316 µM
[29] = second compound 3.16 µM, first compound 1 µM
[30] = second compound 3.16 µM, first compound 3.16 µM
[31] = second compound 0.0316 µM, first compound 10 µM
[32] = second compound 0.1 µM, first compound 10 µM
[33] = second compound 0.316 µM, first compound 10 µM
[34] = second compound 1 µM, first compound 10 µM
[35] = second compound 3.16 µM, first compound 10 µM
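Further: spheroids exposed to agents for 7 days before readout.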

SMILES | IC50 (second compound 0.0316 µM) | IC50 (second compound 0.1 µM) | IC50 (second compound 0.316 µM) | IC50 (second compound 1 µM) | IC50 (second compound 3.16 µM) | viability, T/C [2] | viability, T/C [3] | viability, T/C [4] | viability, T/C [5] | viability, T/C [8] | viability, T/C [9] | viability, T/C [10] | viability, T/C [11] | viability, T/C [14] | viability, T/C [15] | viability, T/C [16] | viability, T/C [17] | viability, T/C [20] | viability, T/C [21] | viability, T/C [22] | other results
CC1COCCN1c1cc(-c2ccnn2C)c2ccnc(-c3ccn[nH]3)c2n1 (stereo not given) + C=CC(=O)N1CCN(c2nc(OCC3CCCN3C)nc3c2CCN(c2cccc4cccc(C)c24)C3)CC1CC#N | 1790 nM | 909 nM | 723 nM | 298 nM | 17 nM | 77.8% | 64.8% | 58.8% | 48.8% | 83.7% | 65.5% | 54.5% | 45.8% | 74.6% | 60.8% | 54.6% | 46.4% | 76.3% | 59.7% | 51.5% | viability, T/C [1]: 102%; viability, T/C [6]: 49.3%; viability, T/C [7]: 103%; viability, T/C [12]: 51.2%; viability, T/C [13]: 95%; viability, T/C [18]: 47.8%; viability, T/C [19]: 85%; viability, T/C [23]: 41.6%; viability, T/C [24]: 42.4%; viability, T/C [25]: 53.4%; viability, T/C [26]: 46.5%; viability, T/C [27]: 37.2%; viability, T/C [28]: 33.5%; viability, T/C [29]: 25.4%; viability, T/C [30]: 23.4%
CCN1CCN(Cc2ccc(Nc3ncc(F)c(-c4cc(F)c5nc(C)n(C(C)C)c5c4)n3)nc2)CC1 + C=CC(=O)N1CCN(c2nc(OCC3CCCN3C)nc3c2CCN(c2cccc4cccc(C)c24)C3)CC1CC#N | > 1000 nM | > 1000 nM | > 1000 nM | > 1000 nM | 10 nM | 91.2% | 89.1% | 89.3% | 89.6% | 75.9% | 74.5% | 77.7% | 91.2% | 78% | 78.4% | 76.6% | 82.5% | 78.1% | 68.5% | 72.4% | viability, T/C (second compound 0.0316 µM, first compound 0.00316 µM): 105%; viability, T/C [1]: 102%; viability, T/C (second compound 0.1 µM, first compound 0.00316 µM): 93.1%; viability, T/C [7]: 93.6%; viability, T/C (second compound 0.316 µM, first compound 0.00316 µM): 101%; viability, T/C [13]: 88.1%; viability, T/C (second compound 1 µM, first compound 0.00316 µM): 75.7%; viability, T/C [19]: 86.1%; viability, T/C [23]: 82.3%; viability, T/C (second compound 3.16 µM, first compound 0.00316 µM): 53.1%; viability, T/C [25]: 54.1%; viability, T/C [26]: 46%; viability, T/C [27]: 41.3%; viability, T/C [28]: 49.4%; viability, T/C [29]: 47.6%
CCNC(=O)CC1N=C(c2ccc(Cl)cc2)c2cc(OC)ccc2-n2c(C)nnc21 (stereo not given) + C=CC(=O)N1CCN(c2nc(OCC3CCCN3C)nc3c2CCN(c2cccc4cccc(C)c24)C3)CC1CC#N | 3550 nM | 1180 nM | 835 nM | 855 nM | < 31.6 nM | 110% | 98.9% | 74.7% | 63.9% | 102% | 89.1% | 64.8% | 51% | 118% | 105% | 63.5% | 50.4% | 87.2% | 82.7% | 66.5% | viability, T/C [6]: 49.9%; viability, T/C [31]: 44.8%; viability, T/C [12]: 46.3%; viability, T/C [32]: 45.7%; viability, T/C [18]: 45%; viability, T/C [33]: 42.4%; viability, T/C [23]: 46.5%; viability, T/C [24]: 45%; viability, T/C [34]: 39.5%; viability, T/C [26]: 49%; viability, T/C [27]: 49.4%; viability, T/C [28]: 39.2%; viability, T/C [29]: 20.6%; viability, T/C [30]: 29.3%; viability, T/C [35]: 27.9%
Cn1nccc1Nc1nccc(-c2cc3c(s2)C(C)(C)N(CCN2CCOCC2)C3=O)n1 + C=CC(=O)N1CCN(c2nc(OCC3CCCN3C)nc3c2CCN(c2cccc4cccc(C)c24)C3)CC1CC#N | 601 nM | 506 nM | 315 nM | 421 nM | < 31.6 nM | 98.1% | 81% | 57.7% | 43.8% | 97.5% | 78.4% | 58% | 39.5% | 87.2% | 72.8% | 48.2% | 38.2% | 75.5% | 69.4% | 55% | viability, T/C [6]: 34%; viability, T/C [31]: 29.6%; viability, T/C [12]: 32.8%; viability, T/C [32]: 31.8%; viability, T/C [18]: 31.4%; viability, T/C [33]: 29.2%; viability, T/C [23]: 36.1%; viability, T/C [24]: 29.6%; viability, T/C [34]: 28.2%; viability, T/C [26]: 45.8%; viability, T/C [27]: 32.2%; viability, T/C [28]: 25.5%; viability, T/C [29]: 18.1%; viability, T/C [30]: 14.7%; viability, T/C [35]: 9.26%
